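Values below derive from 48-hour exposures of cells grown in 96-well plates, with endpoints linearly interpolated between the two concentrations bracketing the appropriate inhibition level. TGI denotes the concentration required for complete inhibition of growth.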
How the values were obtained:
Assay in all cases: DTP human tumour cell line panel, 48 h
CAKI-1 renal = tested on: CAKI-1 renal
SNB-19 CNS = tested on: SNB-19 CNS
RXF 393 renal = tested on: RXF 393 renal
HL-60(TB) leukemia = tested on: HL-60(TB) leukemia
UACC-257 melanoma = tested on: UACC-257 melanoma
HS 578T breast = tested on: HS 578T breast
MCF7 breast = tested on: MCF7 breast
RPMI-8226 leukemia = tested on: RPMI-8226 leukemia
SK-MEL-5 melanoma = tested on: SK-MEL-5 melanoma
NCI-H23 lung = tested on: NCI-H23 lung
HCT-15 colon = tested on: HCT-15 colon
HT29 colon = tested on: HT29 colon
MDA-MB-435 = tested on: MDA-MB-435
SK-OV-3 ovarian = tested on: SK-OV-3 ovarian
SK-MEL-2 melanoma = tested on: SK-MEL-2 melanoma
HCT-116 colon = tested on: HCT-116 colon
K-562 leukemia = tested on: K-562 leukemia
786-0 renal = tested on: 786-0 renal
SR leukemia = tested on: SR leukemia
PC-3 prostate = tested on: PC-3 prostate
IGROV1 ovarian = tested on: IGROV1 ovarian
SF-295 CNS = tested on: SF-295 CNS
OVCAR-8 ovarian = tested on: OVCAR-8 ovarian
SK-MEL-28 melanoma = tested on: SK-MEL-28 melanoma
T-47D breast = tested on: T-47D breast
EKVX NSCLC = tested on: EKVX NSCLC
MDA-N = tested on: MDA-N
NCI-H522 lung = tested on: NCI-H522 lung
OVCAR-4 ovarian = tested on: OVCAR-4 ovarian
A498 renal = tested on: A498 renal
OVCAR-5 ovarian = tested on: OVCAR-5 ovarian
SW-620 colon = tested on: SW-620 colon
UO-31 renal = tested on: UO-31 renal
SF-268 CNS = tested on: SF-268 CNS
NCI-H460 lung = tested on: NCI-H460 lung
M14 melanoma = tested on: M14 melanoma
HCC-2998 colon = tested on: HCC-2998 colon
UACC-62 melanoma = tested on: UACC-62 melanoma
NCI/ADR-RES ovarian = tested on: NCI/ADR-RES ovarian
LOX IMVI melanoma = tested on: LOX IMVI melanoma
HOP-62 NSCLC = tested on: HOP-62 NSCLC
COLO 205 colon = tested on: COLO 205 colon
MDA-MB-231 breast = tested on: MDA-MB-231 breast
SN12C renal = tested on: SN12C renal
U251 CNS = tested on: U251 CNS
CCRF-CEM leukemia = tested on: CCRF-CEM leukemia
MOLT-4 leukemia = tested on: MOLT-4 leukemia
A549 NSCLC = tested on: A549 NSCLC
TK-10 renal = tested on: TK-10 renal
BT-549 breast = tested on: BT-549 breast
MALME-3M melanoma = tested on: MALME-3M melanoma
ACHN renal = tested on: ACHN renal
SF-539 CNS = tested on: SF-539 CNS
OVCAR-3 ovarian = tested on: OVCAR-3 ovarian
HOP-92 NSCLC = tested on: HOP-92 NSCLC
DU-145 prostate = tested on: DU-145 prostate
KM12 colon = tested on: KM12 colon
NCI-H226 lung = tested on: NCI-H226 lung
SNB-75 CNS = tested on: SNB-75 CNS

c1ccc([C@@H]2N[C@@]3(CO[Si](c4ccccc4)(c4ccccc4)c4ccccc4)CC[C@H]4CN[C@@H]2[C@H]43)cc1
TGI (CAKI-1 renal): 25.4 µM
TGI (SNB-19 CNS): 31.5 µM
TGI (RXF 393 renal): 16.9 µM
TGI (HL-60(TB) leukemia): 21.3 µM
TGI (UACC-257 melanoma): 27.5 µM
TGI (HS 578T breast): 36.3 µM
TGI (MCF7 breast): 11.5 µM
TGI (RPMI-8226 leukemia): 13.8 µM
TGI (SK-MEL-5 melanoma): 19.2 µM
TGI (NCI-H23 lung): 30.5 µM
TGI (HCT-15 colon): 10.4 µM
TGI (HT29 colon): 7.17 µM
TGI (MDA-MB-435): 20.8 µM
TGI (SK-OV-3 ovarian): 30.3 µM
TGI (SK-MEL-2 melanoma): 35.3 µM
TGI (HCT-116 colon): 11.9 µM
TGI (K-562 leukemia): > 100 µM
TGI (786-0 renal): 25.9 µM
TGI (SR leukemia): > 100 µM
TGI (PC-3 prostate): 21.3 µM
TGI (IGROV1 ovarian): 26.7 µM
TGI (SF-295 CNS): 25 µM
TGI (OVCAR-8 ovarian): 28.7 µM
TGI (SK-MEL-28 melanoma): 35.6 µM
TGI (T-47D breast): 16.7 µM
TGI (EKVX NSCLC): 29.5 µM
TGI (MDA-N): 13.1 µM
TGI (NCI-H522 lung): 16.1 µM
TGI (OVCAR-4 ovarian): 29.3 µM
TGI (A498 renal): 30.4 µM
TGI (OVCAR-5 ovarian): 31 µM
TGI (SW-620 colon): 11.7 µM
TGI (UO-31 renal): 22.8 µM
TGI (SF-268 CNS): 22.6 µM
TGI (NCI-H460 lung): 25 µM
TGI (M14 melanoma): 17.4 µM
TGI (HCC-2998 colon): 3.05 µM
TGI (UACC-62 melanoma): 28.2 µM
TGI (NCI/ADR-RES ovarian): 32.4 µM
TGI (LOX IMVI melanoma): 24 µM
TGI (HOP-62 NSCLC): 31.2 µM
TGI (COLO 205 colon): 3.14 µM
TGI (MDA-MB-231 breast): 25.9 µM
TGI (SN12C renal): 27.1 µM
TGI (U251 CNS): 30.9 µM
TGI (CCRF-CEM leukemia): > 100 µM
TGI (MOLT-4 leukemia): > 100 µM
TGI (A549 NSCLC): 26.1 µM
TGI (TK-10 renal): 30.5 µM
TGI (BT-549 breast): 35.3 µM
TGI (MALME-3M melanoma): 2.65 µM
TGI (ACHN renal): 26.6 µM
TGI (SF-539 CNS): 28.6 µM
TGI (OVCAR-3 ovarian): 27 µM
TGI (HOP-92 NSCLC): 15.9 µM
TGI (DU-145 prostate): 21.8 µM
TGI (KM12 colon): 12.4 µM
TGI (NCI-H226 lung): 27.5 µM

Cc1ccc(S(=O)(=O)NC(=O)NCC(=O)NCC(=O)O)cc1
TGI (CAKI-1 renal): > 100 µM
TGI (SNB-19 CNS): > 100 µM
TGI (RXF 393 renal): > 100 µM
TGI (HL-60(TB) leukemia): > 100 µM
TGI (UACC-257 melanoma): > 100 µM
TGI (HS 578T breast): > 100 µM
TGI (MCF7 breast): > 100 µM
TGI (RPMI-8226 leukemia): > 100 µM
TGI (SK-MEL-5 melanoma): > 100 µM
TGI (NCI-H23 lung): > 100 µM
TGI (HCT-15 colon): > 100 µM
TGI (HT29 colon): > 100 µM
TGI (MDA-MB-435): > 100 µM
TGI (SK-OV-3 ovarian): > 100 µM
TGI (SK-MEL-2 melanoma): > 100 µM
TGI (HCT-116 colon): > 100 µM
TGI (K-562 leukemia): > 100 µM
TGI (786-0 renal): > 100 µM
TGI (SR leukemia): > 100 µM
TGI (PC-3 prostate): > 100 µM
TGI (IGROV1 ovarian): > 100 µM
TGI (SF-295 CNS): > 100 µM
TGI (SNB-75 CNS): > 100 µM
TGI (OVCAR-8 ovarian): > 100 µM
TGI (SK-MEL-28 melanoma): > 100 µM
TGI (T-47D breast): > 100 µM
TGI (EKVX NSCLC): > 100 µM
TGI (MDA-N): > 100 µM
TGI (NCI-H522 lung): > 100 µM
TGI (OVCAR-4 ovarian): > 100 µM
TGI (A498 renal): > 100 µM
TGI (OVCAR-5 ovarian): > 100 µM
TGI (SW-620 colon): > 100 µM
TGI (UO-31 renal): > 100 µM
TGI (SF-268 CNS): > 100 µM
TGI (NCI-H460 lung): > 100 µM
TGI (M14 melanoma): > 100 µM
TGI (HCC-2998 colon): > 100 µM
TGI (UACC-62 melanoma): > 100 µM
TGI (NCI/ADR-RES ovarian): > 100 µM
TGI (LOX IMVI melanoma): > 100 µM
TGI (HOP-62 NSCLC): > 100 µM
TGI (COLO 205 colon): > 100 µM
TGI (MDA-MB-231 breast): > 100 µM
TGI (U251 CNS): > 100 µM
TGI (CCRF-CEM leukemia): > 100 µM
TGI (MOLT-4 leukemia): > 100 µM
TGI (A549 NSCLC): > 100 µM
TGI (TK-10 renal): > 100 µM
TGI (BT-549 breast): > 100 µM
TGI (MALME-3M melanoma): > 100 µM
TGI (ACHN renal): > 100 µM
TGI (SF-539 CNS): > 100 µM
TGI (OVCAR-3 ovarian): > 100 µM
TGI (HOP-92 NSCLC): > 100 µM
TGI (DU-145 prostate): > 100 µM
TGI (KM12 colon): > 100 µM
TGI (NCI-H226 lung): > 100 µM

CC(C)C[C@H](NC(=O)CCc1ccccc1)B(O)O
TGI (CAKI-1 renal): 25.2 µM
TGI (SNB-19 CNS): > 100 µM
TGI (RXF 393 renal): 19.1 µM
TGI (HL-60(TB) leukemia): 8.8 µM
TGI (UACC-257 melanoma): 37.8 µM
TGI (HS 578T breast): 29.6 µM
TGI (MCF7 breast): > 100 µM
TGI (RPMI-8226 leukemia): 6.11 µM
TGI (SK-MEL-5 melanoma): 22.8 µM
TGI (NCI-H23 lung): > 100 µM
TGI (HCT-15 colon): 38.1 µM
TGI (HT29 colon): 15.4 µM
TGI (MDA-MB-435): 7.79 µM
TGI (SK-MEL-2 melanoma): 39.4 µM
TGI (HCT-116 colon): 18.6 µM
TGI (K-562 leukemia): 62.7 µM
TGI (786-0 renal): 57.5 µM
TGI (SR leukemia): 9.8 µM
TGI (PC-3 prostate): > 100 µM
TGI (IGROV1 ovarian): > 100 µM
TGI (SF-295 CNS): 34.5 µM
TGI (OVCAR-8 ovarian): 46.2 µM
TGI (SK-MEL-28 melanoma): 32.4 µM
TGI (T-47D breast): 43.9 µM
TGI (EKVX NSCLC): > 100 µM
TGI (MDA-N): 7.27 µM
TGI (NCI-H522 lung): 31.1 µM
TGI (OVCAR-4 ovarian): > 100 µM
TGI (A498 renal): 14 µM
TGI (OVCAR-5 ovarian): 40.2 µM
TGI (SW-620 colon): 19.1 µM
TGI (UO-31 renal): 60.1 µM
TGI (SF-268 CNS): 59.4 µM
TGI (NCI-H460 lung): 52.9 µM
TGI (M14 melanoma): 24.7 µM
TGI (HCC-2998 colon): 27 µM
TGI (UACC-62 melanoma): 72.9 µM
TGI (NCI/ADR-RES ovarian): 49.2 µM
TGI (LOX IMVI melanoma): 16.7 µM
TGI (HOP-62 NSCLC): 46.9 µM
TGI (COLO 205 colon): 75.3 µM
TGI (MDA-MB-231 breast): 36.2 µM
TGI (SN12C renal): 61.5 µM
TGI (U251 CNS): > 100 µM
TGI (CCRF-CEM leukemia): 7.33 µM
TGI (MOLT-4 leukemia): 11.4 µM
TGI (A549 NSCLC): > 100 µM
TGI (TK-10 renal): 55.8 µM
TGI (BT-549 breast): 57.6 µM
TGI (MALME-3M melanoma): 32.9 µM
TGI (ACHN renal): > 100 µM
TGI (SF-539 CNS): 15.4 µM
TGI (OVCAR-3 ovarian): 17.4 µM
TGI (HOP-92 NSCLC): 65.1 µM
TGI (DU-145 prostate): > 100 µM
TGI (KM12 colon): 32.8 µM
TGI (NCI-H226 lung): 4.8 µM
